Measurements taken from patent US8598355B2, “Amide compound” (Astellas Pharma Inc., priority 2008, dated 2013).

Columns and labels:
rat EP4 receptor [1] = target: T1, rat EP4 receptor (Rattus norvegicus, UniProt P43114); assay: In vivo rat EP4 receptor antagonistic activity (ONO-4819/LPS, plasma TNF-α); conditions: SD rat, oral
Procedure: Evaluation Test of In Vivo Rat EP4 Receptor Antagonistic Activity
A solution of PEG 400:20% Tween 80:aqueous 1 M NaHCO3 solution=1:4:5 of a test compound was orally administered to a SD rat (male, 6-week old) under non-fasting conditions, and after 1 hour, ONO-4819 was administered subcutaneously to the back of the rat. After 30 minutes, Lipopolysaccharide (LPS, 0.01 mg/kg) was administered to the tail vein without anesthesia, and after 60 minutes, 0.5 mL of heparin blood was collected from the fundus under ether anesthesia. The blood sample was centrifuged (3000 rpm, 10 minutes) to separate the plasma, and then the TNF-α concentration in the rat plasma was measured by an ELISA kit (see Hepatology Research Journal, vol. 21, 252-260, 2001). A value obtained by subtracting the TNF-α concentration of the group treated with ONO-4819 from the TNF-α concentration of the group not treated with ONO-4819 was taken as 100%, and the inhibitory rates to the value were calculated for the test compounds.
In this connection, Ex represents the below-described Example compound number.

rat EP4 receptor [2] = target: T1, rat EP4 receptor; assay: Evaluation test of rat EP4 receptor affinity ([3H]PGE2 binding, membrane fraction of HEK293 cells expressing rat EP4); parameters: expressed in transfected cells; host or cells: HEK293 cells, transient transfection with Lipofectamine 2000; membrane fraction; conditions: [3H]PGE2 0.3 nM
Procedure: Evaluation Test of Rat EP4 Receptor Affinity
Cell Culturing and Transfection
Using a 10 cm collagen-coated dish (Asahi Glass), HEK293 cells were cultured in D-MEM culture medium, the culture medium was removed at a confluence (90 to 100% density state) and washed with a phosphate buffer saline (PBS), and then the cells were detached with N,N,N′,N′-tetrakis(carboxymethyl)ethylenediamine (EDTA). The number of the cells were counted and seeded on a 15 cm collagen-coated dish to a confluence of 70%. On the next day, to an Opti-MEM culture medium at 1.2 mL/dish was added Lipofectamine 2000 (Invitrogen) at 60 μL/dish, followed by leaving to stand at room temperature for 5 minutes. A plasmid in which rat EP4 (Sequence Number 1) had been inserted into a TA cloning site of pcDNA3.1-V5-His-topo was added thereto at 15 μg/dish. After leaving to stand at room temperature for 30 minutes, the resultant was added to the dish and cultured for 20 to 24 hours. The cell culture was carried out in a CO2 incubator (37° C., 5% CO2).
Preparation of Membrane Fraction
The culture medium was removed by suction, 10 mL of cooled PBS was added thereto per 15 cm dish, and the cells were scraped using a cell scraper (Sumitomo Bakelite). They were washed with cooled PBS (1,200 rpm, 4° C., 5 min), and then suspended in 6 mL of cooled 20 mM Tris-HCl (pH 7.4; Nakalai Tesque Inc., including 5 mM EDTA (Nakalai Tesque Inc.) per dish and the resultant was homogenized using a Polytron and the homogenate was centrifuged (26,000 rpm, 20 min, 4° C.). The obtained precipitate was resuspended in cooled 20 mM Tris-HCl and homogenized again using a Polytron, and the homogenate was centrifuged (26,000 rpm, 20 min, 4° C.). The obtained precipitate was resuspended in 50 mM HEPES (pH 7.5; Dojindo Laboratories) at 1 mL per dish, homogenized using a Polytron, and freeze-stored at −80° C. as a membrane fraction. At this time, a part thereof was used for the measurement of the protein concentration. Measurement of the protein concentration was carried out in duplicate using a Bio-Rad Protein assay kit (Bio-Rad Laboratories) in accordance with the appended standard Protocol.
[^3H]PGE2 50 μL (final concentration 0.3 nM; Perkin Elmer), 100 μL (20 μg/well) of a membrane fraction prepared from the rat EP4 expression cell and 50 μL of a test compound were mixed in a 96-well microplate (Sumitomo Bakelite), incubated at room temperature for 1 hour, filtered by suction on a UniFilter-96 GF/B (Perkin Elmer) using a FilterMate Harvester (Perkin Elmer), and then washed three times with 300 μL/well of a cooled assay buffer. Dilution of [^3H]PGE2 and the membrane fraction was carried out using an assay buffer (50 mM HEPES, 10 mM MgCl2), and dilution of the test compound and the unlabeled PGE2 was carried out using DMSO and an assay buffer. Further, in the case of the addition of a human serum albumin (HSA), dilution was carried out using an assay buffer containing 4% HSA (final concentration 1%; Sigma). The UniFilter-96 GF/B was treated preliminarily by washing twice with 200 μL/well of a cooled assay buffer. The UniFilter-96 GF/B after filtration was dried in a dryer overnight, 50 μL/well of MicroScint20 (Perkin Elmer) was added thereto, and then the radioactivity was measured using a TopCount (Perkin Elmer). For measurement of the non-specific binding, an unlabeled PGE2 (final concentration 1 μM; Cayman) was added. All of the measurements were carried out in duplicate, and the specific binding amount was determined by subtracting the non-specific binding amount from the total binding amount. The Ki value was calculated according to the general methods.
In the connection, Ex represents the below-described Example Compound number.

T1 sequence (P43114 whole entry): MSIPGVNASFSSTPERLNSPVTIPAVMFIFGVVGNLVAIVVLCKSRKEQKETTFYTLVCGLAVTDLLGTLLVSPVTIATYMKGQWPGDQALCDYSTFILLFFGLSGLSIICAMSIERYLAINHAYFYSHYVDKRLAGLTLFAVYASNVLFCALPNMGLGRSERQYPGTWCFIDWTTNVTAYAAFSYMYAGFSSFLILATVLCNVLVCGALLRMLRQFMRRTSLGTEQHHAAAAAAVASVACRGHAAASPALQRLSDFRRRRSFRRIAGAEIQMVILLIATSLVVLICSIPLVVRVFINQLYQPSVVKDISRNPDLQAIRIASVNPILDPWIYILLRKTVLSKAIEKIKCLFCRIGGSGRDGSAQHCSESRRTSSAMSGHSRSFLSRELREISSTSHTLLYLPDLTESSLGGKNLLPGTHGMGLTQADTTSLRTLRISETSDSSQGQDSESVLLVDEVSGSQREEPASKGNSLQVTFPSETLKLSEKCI

Row | Ki (rat EP4 receptor [2]) | Compound | further results
1 | 1 nM | C[C@H](NC(=O)c1cccc2ccn(Cc3ccc(-c4ccccc4)cn3)c12)c1ccc(C(=O)O)cc1 [Example 115] | Inhibitory rate (%) (rat EP4 receptor [1]; dose 0.03 mg/kg): 60%
2 | 0.75 nM | O=C(O)c1ccc(CNC(=O)c2cccc3ccn(Cc4cc5ccccc5o4)c23)cc1 [Example 187] | Inhibitory rate (%) (rat EP4 receptor [1]; dose 0.03 mg/kg): 58%
3 | 2.4 nM | O=C(O)c1ccc(CNC(=O)c2cc(C(F)(F)F)cc3ccn(Cc4csc(-c5ccccc5)n4)c23)cc1 [Example 212] | Inhibitory rate (%) (rat EP4 receptor [1]; dose 0.01 mg/kg): 52%
4 | 6.3 nM | C[C@H](NC(=O)c1cccc2ccn(CCOC3CCCCC3)c12)c1ccc(C(=O)O)cc1 [Example 164] | –
5 | 1.8 nM | O=C(NC[C@H]1CC[C@H](C(=O)O)CC1)c1cc(Cl)cc2ccn(Cc3cc4ccccc4cn3)c12 [Example 146] | Inhibitory rate (%) (rat EP4 receptor [1]; dose 0.01 mg/kg): 88%
6 | 31 nM | C[C@H](NC(=O)c1cccc2ccn(Cc3ccc(Cl)cc3)c12)c1ccc(C(=O)NS(=O)(=O)CCCO)cc1 [Example 6, 1-(4-chlorobenzyl)-N-[(1S)-1-(4-{[(3-hydroxypropyl)sulfonyl]carbamoyl}phenyl)ethyl]-1H-indole-7-carboxamide] | –
7 | 2 nM | O=C(NC[C@H]1CC[C@H](C(=O)O)CC1)c1cc(C(F)(F)F)cc2ccn(Cc3csc(-c4ccccc4)n3)c12 [Example 213] | Inhibitory rate (%) (rat EP4 receptor [1]; dose 0.01 mg/kg): 75%
8 | 1.2 nM | O=C(NC[C@H]1CC[C@H](C(=O)O)CC1)c1cccc2ccn(Cc3cc4ccccc4s3)c12 [Example 206] | Inhibitory rate (%) (rat EP4 receptor [1]; dose 0.01 mg/kg): 72%
9 | 1.7 nM | Cc1cc(C(=O)NC[C@H]2CC[C@H](C(=O)O)CC2)c2c(ccn2Cc2ccc3ccccc3n2)c1 [Example 96] | Inhibitory rate (%) (rat EP4 receptor [1]; dose 0.01 mg/kg): 57%; melting point: 244 to 245 °C (dec.)
10 | 9.1 nM | O=C(NC[C@H]1CC[C@@H](C(=O)O)CC1)c1cccc2ccn(Cc3ccc(Cl)cc3)c12 [Example 137] | –
11 | 2.6 nM | C[C@H](NC(=O)c1cccc2ccn(Cc3ccc(N4CCCCC4)nc3)c12)c1ccc(C(=O)O)cc1 [Example 132] | –
12 | 1.4 nM | O=C(NC[C@H]1CC[C@H](C(=O)O)CC1)c1cc(C(F)(F)F)cc2ccn(Cc3cc4cc(Cl)ccc4o3)c12 [Example 231] | melting point: 211 to 213 °C
13 | 1.4 nM | O=C(NC[C@H]1CC[C@H](C(=O)O)CC1)c1cc(C(F)(F)F)cc2ccn(Cc3ccc(Cl)cc3)c12 [Example 69] | –
14 | 0.61 nM | C[C@H](NC(=O)c1cccc2ccn(Cc3coc(-c4ccccc4)n3)c12)c1ccc(C(=O)O)cc1 [Example 140] | –
15 | 2.8 nM | O=C(NC[C@H]1CC[C@H](C(=O)O)CC1)c1cc(C(F)(F)F)cc2ccn(Cc3ccc4ncccc4c3)c12 [Example 222] | –
16 | 16 nM | O=C(NC[C@H]1CC[C@H](C(=O)O)CC1)c1cc(C(F)(F)F)cc2ccn(Cc3cccc4cnccc34)c12 [Example 220] | –
17 | 2.2 nM | O=C(NC[C@H]1CC[C@H](C(=O)O)CC1)c1cc(C(F)(F)F)cc2ccn(Cc3ccc(-c4ccccc4)cn3)c12 [Example 214] | Inhibitory rate (%) (rat EP4 receptor [1]; dose 0.01 mg/kg): 62%
18 | 2.1 nM | O=C(NC[C@H]1CC[C@H](C(=O)O)CC1)c1cc(F)cc2ccn(Cc3cc4ccccc4cn3)c12 [Example 225] | Inhibitory rate (%) (rat EP4 receptor [1]; dose 0.003 mg/kg): 77%
19 | 1.1 nM | CN(NC(=O)c1cccc2ccn(Cc3csc(-c4ccccc4)n3)c12)c1ccc(C(=O)O)cc1 [Example 207] | Inhibitory rate (%) (rat EP4 receptor [1]; dose 0.03 mg/kg): 83%
20 | 1.8 nM | O=C(NC[C@H]1CC[C@H](C(=O)O)CC1)c1cc(Cl)cc2ccn(Cc3ccc(Cl)cc3)c12 [Example 52] | –

Row | Ki (rat EP4 receptor [2]) | Compound | further results
21 | 3.9 nM | O=C(NC[C@H]1CC[C@H](C(=O)O)CC1)c1cc(C(F)(F)F)cc2ccn(Cc3ccc(Cl)cn3)c12 [Example 229] | melting point: 224 to 226 °C (dec.)
22 | 1.9 nM | O=C(NC[C@H]1CC[C@H](C(=O)O)CC1)c1cc(Cl)cc2ccn(Cc3csc(-c4ccccc4)n3)c12 [Example 209] | –
23 | 1.3 nM | O=C(NC[C@H]1CC[C@H](C(=O)O)CC1)c1cc(Cl)cc2ccn(CCOc3ccc(Cl)cc3)c12 [Example 210] | Inhibitory rate (%) (rat EP4 receptor [1]; dose 0.03 mg/kg): 67%
24 | 3.3 nM | O=C(NC[C@H]1CC[C@H](C(=O)O)CC1)c1cc(C(F)(F)F)cc2ccn(Cc3cccc4cccnc34)c12 [Example 219] | –
25 | 2.8 nM | O=C(NC[C@H]1CC[C@H](C(=O)O)CC1)c1c(F)ccc2ccn(Cc3cc4ccccc4cn3)c12 [Example 226] | –
26 | 3.5 nM | O=C(NC[C@H]1CC[C@H](C(=O)O)CC1)c1cc(C(F)(F)F)cc2ccn(Cc3ccc4ccncc4c3)c12 [Example 223] | –
27 | 1 nM | O=C(O)c1ccc(CNC(=O)c2cc(Cl)cc3ccn(Cc4cc5ccccc5cn4)c23)cc1 [Example 143] | Inhibitory rate (%) (rat EP4 receptor [1]; dose 0.03 mg/kg): 70%
28 | 16 nM | O=C(NC[C@H]1CC[C@H](C(=O)O)CC1)c1cc(C(F)(F)F)cc2ccn(Cc3cccc(Cl)n3)c12 [Example 216] | –
29 | 2.1 nM | O=C(NC[C@H]1CC[C@H](C(=O)O)CC1)c1cc(C(F)(F)F)cc2ccn(Cc3cc4ccccc4o3)c12 [Example 228] | –
30 | 0.82 nM | C[C@H](NC(=O)c1cccc2ccn(Cc3ccc(-c4ccccc4)nc3)c12)c1ccc(C(=O)O)cc1 [Example 4, 4-{(1S)-1-[({1-[(6-phenylpyridin-3-yl)methyl]-1H-indol-7-yl}carbonyl)amino]ethyl}benzoic acid] | –
31 | 12 nM | O=C(NC[C@H]1CC[C@H](C(=O)O)CC1)c1cccc2ccn(Cc3ccc(Cl)cc3)c12 [Example 32] | –
32 | 1.7 nM | O=C(O)c1ccc(CNC(=O)c2cc(Cl)cc3ccn(CCOc4ccc(Cl)cc4)c23)cc1 [Example 211] | Inhibitory rate (%) (rat EP4 receptor [1]; dose 0.01 mg/kg): 43%
33 | 1.7 nM | O=C(NC[C@H]1CC[C@H](C(=O)O)CC1)c1cc(Cl)cc2ccn(Cc3cc4ccccc4o3)c12 [Example 227] | melting point: 228 to 230 °C
34 | 1.8 nM | O=C(O)c1ccc(CNC(=O)c2cc(Cl)cc3ccn(Cc4csc(-c5ccccc5)n4)c23)cc1 [Example 208] | Inhibitory rate (%) (rat EP4 receptor [1]; dose 0.01 mg/kg): 35%
35 | 1.2 nM | O=C(NC[C@H]1CC[C@H](C(=O)O)CC1)c1cccc2ccn(Cc3cc4ccccc4o3)c12 [Example 188] | Inhibitory rate (%) (rat EP4 receptor [1]; dose 0.01 mg/kg): 88%
36 | 3 nM | O=C(NC[C@H]1CC[C@H](C(=O)O)CC1)c1cc(C(F)(F)F)cc2ccn(Cc3cnc4ccccc4c3)c12 [Example 217] | –
37 | 2.9 nM | O=C(NC[C@H]1CC[C@H](C(=O)O)CC1)c1cc(C(F)(F)F)cc2ccn(Cc3ccc4cccnc4c3)c12 [Example 218] | –
38 | 0.35 nM | CN(NC(=O)c1cccc2ccn(CCOc3ccc(Cl)cc3)c12)c1ccc(C(=O)O)cc1 [Example 23] | Inhibitory rate (%) (rat EP4 receptor [1]; dose 0.01 mg/kg): 51%
39 | 2.1 nM | O=C(NC[C@H]1CC[C@H](C(=O)O)CC1)c1cc(C(F)(F)F)cc2ccn(Cc3cc4ccccc4cn3)c12 [Example 159] | Inhibitory rate (%) (rat EP4 receptor [1]; dose 0.03 mg/kg): 68%
